Measurements: BindingDB's records for doi:10.1021/acs.jnatprod.7b00282 (Chiba University, 2017)

Test: Inhibition of recombinant mouse N-terminal FLAG-tagged Notch1 (1704 to 2531 residues) expressed in human LS174T cells assessed as reduction in doxycycline-induced NICD expression after 12 hrs by Bright-Glo luciferase reporter gene assay

Row | Compound | IC50
1 | C[C@@H]1C[C@@]2(N=CCS2)[C@]2(O)O[C@@H]3C[C@@]4(C=O)[C@@H](CC[C@@H]5[C@@H]4CC[C@]4(C)[C@@H](C6=CC(=O)OC6)[C@H](O)C[C@]54O)C[C@H]3O[C@@H]2O1 | 700 nM
2 | C[C@@H]1C[C@@]2(NCCS2)[C@]2(O)O[C@@H]3C[C@@]4(C=O)[C@@H](CC[C@@H]5[C@@H]4CC[C@]4(C)[C@@H](C6=CC(=O)OC6)CC[C@]54O)C[C@H]3O[C@@H]2O1 | 2000 nM
3 | C[C@@H]1C[C@@]2(NC(=O)CS2)[C@]2(O)O[C@@H]3C[C@@]4(C=O)[C@@H](CC[C@@H]5[C@@H]4CC[C@]4(C)[C@@H](C6=CC(=O)OC6)CC[C@]54O)C[C@H]3O[C@@H]2O1 | 300 nM
4 | COC(=O)[C@@]1(O)C[C@@H](C)O[C@H]1O[C@@H]1C[C@@H]2CC[C@@H]3[C@H](CC[C@]4(C)[C@@H](C5=CC(=O)OC5)[C@H](O)C[C@]34O)[C@@]2(C=O)C[C@H]1O | 17300 nM
5 | CC(=O)O[C@H]1C[C@@H](C)O[C@H]2O[C@@H]3C[C@@H]4CC[C@@H]5[C@H](CC[C@]6(C)[C@@H](C7=CC(=O)OC7)CC[C@]56O)[C@@]4(C=O)C[C@H]3O[C@]21O [CHEBI:2867] | 300 nM
6 | C[C@@H]1C[C@H](O)[C@]2(O)O[C@@H]3C[C@@]4(C=O)[C@@H](CC[C@@H]5[C@@H]4CC[C@]4(C)[C@@H](C6=CC(=O)OC6)CC[C@]54O)C[C@H]3O[C@@H]2O1 [CHEBI:3329] | 800 nM
7 | C[C@@H]1CC(=O)[C@]2(O)O[C@@H]3C[C@@]4(C=O)[C@@H](CC[C@@H]5[C@@H]4CC[C@]4(C)[C@@H](C6=CC(=O)OC6)CC[C@]54O)C[C@H]3O[C@@H]2O1 [CHEBI:9913] | 2400 nM
8 | C[C@@H]1C[C@@]2(N=CCS2)[C@]2(O)O[C@@H]3C[C@@]4(C=O)[C@@H](CC[C@@H]5[C@@H]4CC[C@]4(C)[C@@H](C6=CC(=O)OC6)CC[C@]54O)C[C@H]3O[C@@H]2O1 [Uscharin] | 400 nM
